Experimental data as given in patent EP4818176A1, “TETRACYCLIC DERIVATIVE INHIBITOR, AND PREPARATION METHOD AND USE THEREFOR” (Shanghai Hansoh Biomedical Co., Ltd., priority 2023, dated 2025).
Where two headings read alike, the source gives them in different places.

How the values were obtained:
[1] = system: MTAP Knockout HCT116 cells; experiment: Cell proliferation inhibition (CellTiter-Glo), HCT116 MTAP knockout cells; type: cell-based; conditions: for Selectivity: HCT116 IC50 versus MTAP Knockout HCT116 IC50
Text: (§1) Test Example 2: Determination of the inhibitory effect of the compounds of the present invention on the proliferation activity of HCT116 and MTAP Knockout HCT116 cells.
(§2) 1 Experimental objective: The objective of this test example is to determine the inhibitory effect of the compound on the proliferation activity of HCT116 wild-type and HCT116 MTAP knockout cells. 2 Experimental instruments: Centrifuge (Eppendorf 5810R); microplate reader (BioTek Synergy H1 or PerkinElmer Envision); pipette (Eppendorf or Rainin). 3 Experimental reagents: HCT116 and MTAP Knockout HCT116 cells were purchased from Nanjing Cobioer; Cell Titer-Glo was purchased from Promega (Cat. No. G7573); McCoy'5A was purchased from Gibco (Cat. No. 12330031); FBS was purchased from Gibco (Cat. No. 10091148); PBS was purchased from Gibco (Cat. No. 10010023); trypsin was purchased from Gibco (Cat. No. 25200056); cell culture plates were purchased from Corning (Cat. No. 3610). 4 Experimental method: HCT116 and MTAP Knockout HCT116 cells were cultured in McCoy'5A medium containing 10% FBS until an appropriate cell density was reached. The cells were then collected and adjusted to a suitable concentration using complete medium. The cell suspension was seeded into a 96-well plate at 90 µL per well and allowed to adhere overnight in a 37°C, 5% CO2 incubator. Compound solutions of various concentrations were prepared using DMSO and culture medium, with a vehicle control set. The compound solutions were added to the 96-well plate at 10 µL per well, and the plate was incubated in a 37°C, 5% CO2 incubator for an additional 72-240 hours. After incubation, CellTiter-Glo solution was added, and the mixture was mixed uniformly by shaking, followed by incubation in the dark for 10 to 30 minutes. Luminescence was measured using a Synergy H1 or Envision microplate reader. 5 Experimental data processing method: The inhibition rate was calculated using the luminescence signal values, and the concentrations along with the inhibition rates were subjected to non-linear regression curve fitting using Graphpad Prism software to obtain the IC50 values.

[2] = biological target: T1, PRMT5/MEP50-MTA protein complex (Homo sapiens, UniProt O14744); experiment: Thermal shift assay: thermal stability (melting temperature) of PRMT5/MEP50-MTA protein complex; type: binding; conditions: final compound concentration 8 µM; 2 µM PRMT5/MEP50, 2 µM MTA; Tm minus Tm of DMSO vehicle control
T1 construct: purchased Viva Biotech
T1 sequence (O14744 whole entry): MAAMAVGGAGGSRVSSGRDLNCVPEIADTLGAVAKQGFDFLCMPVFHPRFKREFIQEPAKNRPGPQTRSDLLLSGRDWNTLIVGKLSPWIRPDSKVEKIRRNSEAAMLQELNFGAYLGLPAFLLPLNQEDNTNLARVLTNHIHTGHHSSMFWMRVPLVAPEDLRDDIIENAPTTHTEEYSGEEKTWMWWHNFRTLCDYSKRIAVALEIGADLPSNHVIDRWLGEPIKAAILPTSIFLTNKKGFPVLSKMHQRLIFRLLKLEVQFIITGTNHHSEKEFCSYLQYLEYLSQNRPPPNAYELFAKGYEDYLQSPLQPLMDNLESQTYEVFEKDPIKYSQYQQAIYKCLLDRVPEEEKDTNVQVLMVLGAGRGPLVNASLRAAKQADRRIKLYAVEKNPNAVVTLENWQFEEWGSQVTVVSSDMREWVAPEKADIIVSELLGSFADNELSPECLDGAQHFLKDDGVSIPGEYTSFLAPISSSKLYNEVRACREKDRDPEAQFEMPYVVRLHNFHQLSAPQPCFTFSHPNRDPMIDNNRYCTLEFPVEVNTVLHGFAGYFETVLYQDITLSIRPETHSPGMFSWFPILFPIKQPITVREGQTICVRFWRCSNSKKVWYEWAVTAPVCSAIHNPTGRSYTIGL
T1 sequence (Q9BQA1 whole entry partner): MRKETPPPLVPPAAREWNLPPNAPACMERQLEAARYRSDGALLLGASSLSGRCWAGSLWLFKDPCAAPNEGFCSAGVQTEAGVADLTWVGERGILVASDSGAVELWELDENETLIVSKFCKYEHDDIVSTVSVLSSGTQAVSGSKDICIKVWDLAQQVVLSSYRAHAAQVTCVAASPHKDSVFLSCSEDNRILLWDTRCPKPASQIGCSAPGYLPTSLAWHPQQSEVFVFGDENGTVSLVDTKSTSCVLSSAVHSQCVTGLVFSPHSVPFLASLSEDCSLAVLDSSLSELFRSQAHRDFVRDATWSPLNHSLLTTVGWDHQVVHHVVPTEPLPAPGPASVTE
Text: Test Example 1: Determination of the ability of the compounds of the present invention to improve the thermal stability (melting temperature) of the PRMT5/MEP50-MTA protein complex.
1 Experimental objective: The objective of this test example is to determine the ability of the compound to improve the thermal stability of the PRMT5/MEP50-MTA protein complex, resulting in an increase in the protein melting temperature. 2 Experimental instruments: Quantitative PCR instrument (Quantstudio6 Flex) was purchased from Life Technologies; pipettes were purchased from Eppendorf or Rainin. 3 Experimental reagents and consumables: PRMT5/MEP50 protein was prepared by Viva Biotech; HEPES was purchased from Thermo Fisher Scientific (Cat. No. 15630080); DTT was purchased from Sigma (Cat. No. 43816-10ml); sodium chloride was purchased from Invitrogen (Cat. No. AM9760G); Protein Thermal Shift™ Dye Kit was purchased from Thermo Fisher Scientific (Cat. No. 4461146); methylthioadenosine (MTA) was purchased from Sigma (Cat. No. D5011). 4 Experimental method: In this experiment, the thermal shift method was used to measure the change in the melting temperature (Tm) of the PRMT5/MEP50-MTA protein complex before and after compound binding, thereby characterising the ability of the compound to improve the thermal stability of the PRMT5/MEP50-MTA protein complex. A solution containing 50 mM HEPES, 10 mM DTT, 2 µM MTA, SYPRO Orange and 250 mM NaCl was prepared as the experimental buffer. Human PRMT5/MEP50 protein was added to a final concentration of 2 µM, and the mixture was incubated at room temperature for 30 minutes. The above reaction mixture was aliquoted into 8-strip PCR tubes at 19.5 µL per tube. Then 0.5 µL of test compound or DMSO was added to each tube, providing a total reaction volume of 20 µL and a final compound concentration of 8 µM. 2.5% DMSO was set as the vehicle control. After incubation at room temperature for 10 minutes, the PCR tubes were placed in a PCR instrument, and the melt curve function was selected to measure the melting temperature of the PRMT5/MEP50-MTA protein complex in different treatment groups (heated from 25°C to 95°C, 0.03°C/s). 5 Experimental data processing method: The experimental data files from the PCR instrument were imported into the thermal shift software to obtain the melting temperature (Tm) for each treatment group.

[3] = system: HCT116 wild-type cells; experiment: Cell proliferation inhibition (CellTiter-Glo), HCT116 wild-type cells; type: cell-based
Text: as §1, §2

[4] = Homo sapiens, HCT-116, MTAP Knockout HCT116 cells, proliferation inhibition, Cell Titer-Glo, read-out: MTAP Knockout HCT116 IC50
[5] = Homo sapiens, HCT-116, HCT116 wild-type cells, proliferation inhibition, Cell Titer-Glo, read-out: HCT116 IC50
[6] = Homo sapiens, HCT-116, read-out: MTAP Knockout HCT116 IC50
[7] = Homo sapiens, HCT-116, read-out: HCT116 IC50

Molecule	Selectivity [1]	IC50 [1, 4] [µM]	ΔTm at 8 µM [2] [°C]	IC50 [3, 5] [µM]	IC50 [1, 6] [µM]	IC50 [3, 7] [µM]	IC50 ([1]; MTAP Knockout HCT116 cells, proliferation inhibition, Cell Titer-Glo, read-out: MTAP Knockout HCT116 IC50) [µM]	ΔTm (°C) [2] [°C]	IC50 ([3]; HCT116 wild-type cells, proliferation inhibition, Cell Titer-Glo, read-out: HCT116 IC50) [µM]
Nc1nc2cc3c(cc2n2cncc12)C(=O)N([C@@H]1COc2cc(C(F)(F)F)ccc21)CCC/C=C\3 (stereo in doubt) [Example 164-P1, rel-(R, Z)-4-amino-12-(6-(trifluoromethyl)-2,3-dihydrobenzofuran-3-yl)-9,10,11,12-tetrahydro-13H-azo[4,3-g]imidazo[1,5-a]quinoxalin-13-one]	40	0.014	11.2	0.556	–	–	–	–	–
Nc1nc2cc3c(cc2c2c1COC2)C(=O)N(Cc1ccc(C(F)(F)F)cn1)CCC/C=C\3 [Example 173, (Z)-4-Amino-12-((5-(trifluoromethyl)pyridin-2-yl)methyl)-1,3,9,10,11,12-hexahydro-13H-azo[3,4-g]furo[3,4-c]quinolin-13-one]	80	0.0035	11.6	0.279	–	–	–	–	–
Cn1ncc2c(N)nc3cc4c(cc3c21)C(=O)N(C1COc2cc(C(F)(F)F)ccc21)CCCOC4 (stereo not shown) [Example 270, 4-Amino-1-methyl-12-(6-(trifluoromethyl)-2,3-dihydrobenzofuran-3-yl)-1,7,9,10,11,12-hexahydro-13H-[1,5]oxazonino[7,8-g]pyrazolo[4,3-c]quinolin-13-one]	147	–	10.8	–	0.017	2.45	–	–	–
CC(c1ccc(C(F)(F)F)cn1)N1CC/C=C\c2cc3nc(N)c4cncn4c3cc2C1=O (single isomer, unassigned) [Example 313-P1]	59	0.017	11.1	1.02	–	–	–	–	–
Nc1nc2cc3c(cc2n2cncc12)C(=O)N(Cc1ccc(S(F)(F)(F)(F)F)cc1)CCCOC3 [Example 214, 4-Amino-12-(4-(pentafluoro-λ^6-sulphanyl)benzyl)-9,10,11,12-tetrahydroimidazo[1,5-a][1,5]oxazonino[8,7-g]quinoxalin-13(7H)-one]	20	0.0053	12.3	0.106	–	–	–	–	–
Nc1nc2cc3c(cc2n2cncc12)C(=O)N(Cc1ccc(C(F)(F)F)nn1)CC/C=C\3 [Example 418, (Z)-4-Amino-12-(6-(trifluoromethyl)pyridazin-3-yl)methyl-9,10,11,12-tetrahydro-13H-azocino[4,3-g]imidazo[1,5-a]quinoxalin-13-one]	54	–	11.5	–	0.02	1.09	–	–	–
NC1=NC2C=C3CCCCCN(Cc4ccc(C(F)(F)F)cn4)C(=O)C3=CC2n2cncc21 (stereo not shown) [Example 77, 4-Amino-12-((5-(trifluoromethyl)pyridin-2-yl)methyl)-5a,7,8,9,10,11,12,14a-octahydro-13H-azonino[4,3-g]imidazo[1,5-a]quinoxalin-13-one]	20	0.012	11	0.236	–	–	–	–	–
CC1CCN(Cc2ccc(C(F)(F)F)cn2)C(=O)c2cc3c(cc2CO1)nc(N)c1cncn13 (stereo not shown) [Example 177, 4-Amino-9-methyl-12-((5-(trifluoromethyl)pyridin-2-yl)methyl)-9,10,11,12-tetrahydroimidazo[1,5-a][1,5]oxazolo[8,7-g]quinoxalin-13(7H)-one]	84	–	11.2	–	0.018	1.51	–	–	–
Cn1ncc2c(N)nc3cc4c(cc3c21)C(=O)N(Cc1ccc(-c2c(F)cccc2F)cn1)CCCOC4 [Example 427, 4-Amino-12-((5-(2,6-difluorophenyl)pyridin-2-yl)methyl)-1-methyl-1,7,9,10,11,12-hexahydro-13H-[1,5]oxazolo[7,8-g]pyrazolo[4,3-c]quinolin-13-one]	30	–	13.7	–	0.0009	0.027	–	–	–
Cn1ncc2c(N)nc3cc4c(cc3c21)C(=O)N(Cc1ccc(C(F)(F)F)cn1)CCCOC4 [Example 190, 4-Amino-1-methyl-12-((5-(trifluoromethyl)pyridin-2-yl)methyl)-1,7,9,10,11,12-hexahydro-13H-[1,5]oxazolo[7,8-g]pyrazolo[4,3-c]quinolin-13-one]	123	–	12.2	–	0.0062	0.763	–	–	–
CC1OCc2c1c(N)nc1cc3c(cc21)C(=O)N(Cc1ccc(C(F)(F)F)cn1)CCCOC3 (stereo not shown) [Example 184, 4-Amino-3-methyl-12-((5-(trifluoromethyl)pyridin-2-yl)methyl)-3,7,9,10,11,12-hexahydrofuro[3,4-c][1,5]oxazolo [7,8-g]quinoxalin-13(1H)-one]	108	–	11.1	–	0.021	2.29	–	–	–
Nc1nc2cc3c(cc2n2cncc12)C(=O)N(Cc1ccc(C24CC(C2)C4)cn1)CCCOC3 [Example 484, 4-Amino-12-((5-(bicyclo[1.1.1]pentan-1-yl)pyridin-2-yl)methyl)-9,10,11,12-tetrahydroimidazo[1,5-a][1,5]oxazolo[8,7-g]quinoxalin-13(7H)-one]	38	0.0099	11.9	0.379	–	–	–	–	–
C[C@H]1CCCN(Cc2ccc(C(F)(F)F)cn2)C(=O)c2cc3c(cc2C1)nc(N)c1cncn13 [Example 514-P2, (S)-4-amino-8-methyl-12-((5-(trifluoromethyl)pyridin-2-yl)methyl)-7,8,9,10,11,12-hexahydro-13H-azo[4,3-g]imidazo[1,5-a]quinoxalin-13-one]	71	–	11.6	–	0.014	1	–	–	–
(R, Z)-4-amino-12-(2-(trifluoromethyl)-5,8-dihydro-6H-pyrano[3,4-b]pyridin-5-yl)-9,10,11,12-tetrahydro-13H-aza[4,3-g]imidazo[1,5-a]quinoxalin-13-one [Example 158-P1]	81	–	–	–	–	–	0.0087	12.03	0.708
Nc1nc2cc3c(cc2n2cncc12)C(=O)N(C1COCc2nc(C(F)(F)F)ccc21)CC/C=C\3 (stereo not shown) [Example 157, (Z)-4-Amino-11-(2-(trifluoromethyl)-5,8-dihydro-6H-pyrano[3,4-b]pyridin-5-yl)-10,11-dihydroazocino[4,3-g]imidazo[1,5-a]quinoxalin-12(9H)-one]	77	0.023	11.1	1.74	–	–	–	–	–
Nc1nc2cc3c(cc2n2cncc12)C(=O)N(C1COCc2nc(C(F)(F)F)ccc21)CC/C=C\3 (racemic) [Example 311]	77	–	11.1	–	0.023	1.74	–	–	–
